Source: ChEMBL document CHEMBL4321783, “Recent Progress in Natural-Product-Inspired Programs Aimed To Address Antibiotic Resistance and Tolerance” (J Med Chem, 2019)
Converted amounts (≈) assume the structure as drawn. Positions of bridges follow the written chain, without caps; N, C: chain ends. Non-standard residues stand in square brackets, D forms with d. Residues, ends and D or L forms follow the SMILES beside them. *: point of attachment. Octatrienoyl(2E,4E,6E) = C/C=C/C=C/C=C/C(=O)*; Pro(4R-Me) = C[C@H]1CN[C@H](C(=O)O)C1; NMeA = CN[C@@H](C)C(=O)O

Columns and labels:
[1] = Drug accumulation in Escherichia coli MG1655 assessed per 10^12 CFU at 50 uM incubated for 10 mins under shaking condition by LC-MS/MS analysis; format: ADME, K-12 substr. MG1655
[2] = tested on: Staphylococcus aureus; assay: Antibacterial activity against Staphylococcus aureus ATCC 29213 by broth microdilution method; format: functional
[3] = tested on: Staphylococcus aureus; assay: Antibacterial activity against Staphylococcus aureus NRS3 by broth microdilution method; format: functional
[4] = tested on: Escherichia coli; assay: Antibacterial activity against Escherichia coli MG1655 by broth microdilution method; format: functional; settings: K-12 substr. MG1655
[5] = tested on: Escherichia coli; assay: Antibacterial activity against Escherichia coli ELZ4017 by broth microdilution method; format: functional
[6] = tested on: Escherichia coli; assay: Antibacterial activity against Escherichia coli ELZ4045 by broth microdilution method; format: functional
[7] = tested on: Escherichia coli; assay: Antibacterial activity against Escherichia coli ELZ4346 by broth microdilution method; format: functional
[8] = tested on: Escherichia coli; assay: Antibacterial activity against Escherichia coli ELZ4081 by broth microdilution method; format: functional
[9] = tested on: Escherichia coli; assay: Antibacterial activity against Escherichia coli ELZ4072 by broth microdilution method; format: functional
[10] = tested on: Escherichia coli; assay: Antibacterial activity against Escherichia coli ELZ4239 by broth microdilution method; format: functional
[11] = tested on: Escherichia coli; assay: Antibacterial activity against Escherichia coli BAA-2469 by broth microdilution method; format: functional
[12] = tested on: Klebsiella pneumoniae; assay: Antibacterial activity against Klebsiella pneumoniae ATCC 27736 by broth microdilution method; format: functional
[13] = tested on: Klebsiella pneumoniae; assay: Antibacterial activity against Klebsiella pneumoniae 4-38 by broth microdilution method; format: functional
[14] = tested on: Klebsiella pneumoniae; assay: Antibacterial activity against Klebsiella pneumoniae 6-73 by broth microdilution method; format: functional
[15] = tested on: Enterobacter cloacae; assay: Antibacterial activity against Enterobacter cloacae ATCC 29893 by broth microdilution method; format: functional
[16] = tested on: Enterobacter cloacae; assay: Antibacterial activity against Enterobacter cloacae 1-60 by broth microdilution method; format: functional
[17] = tested on: Enterobacter cloacae; assay: Antibacterial activity against Enterobacter cloacae 3-46 by broth microdilution method; format: functional
[18] = tested on: Pseudomonas aeruginosa; assay: Growth inhibition of Pseudomonas aeruginosa PA14 after 24 hrs; format: functional, organism-based; settings: PA14, 24 h
[19] = tested on: Staphylococcus aureus; assay: Antibacterial activity against methicillin-resistant Staphylococcus aureus NRS119 by CLSI-based broth microdilution method; format: functional, organism-based
[20] = tested on: Pseudomonas aeruginosa; assay: Antibacterial activity against Pseudomonas aeruginosa KW799 after 20 hrs under iron-rich medium by broth microdilution method; format: functional; settings: KW799, 20 h
[21] = tested on: Pseudomonas aeruginosa; assay: Antibacterial activity against Pseudomonas aeruginosa PAO1 after 20 hrs under iron-deficient medium by broth microdilution method; format: functional; settings: PAO1, 20 h
[22] = tested on: Pseudomonas aeruginosa; assay: Antibacterial activity against Pseudomonas aeruginosa KW799/61 after 20 hrs under iron-rich medium by broth microdilution method; format: functional; settings: KW799/61, 20 h
[23] = tested on: Pseudomonas aeruginosa; assay: Antibacterial activity against Pseudomonas aeruginosa KW799/61 after 20 hrs under iron-deficient medium by broth microdilution method; format: functional; settings: KW799/61, 20 h
[24] = tested on: Pseudomonas aeruginosa; assay: Antibacterial activity against Pseudomonas aeruginosa PAO1 after 20 hrs under iron-rich medium by broth microdilution method; format: functional; settings: PAO1, 20 h
[25] = tested on: Pseudomonas aeruginosa; assay: Antibacterial activity against Pseudomonas aeruginosa KW799 after 20 hrs under iron-deficient medium by broth microdilution method; format: functional; settings: KW799, 20 h
[26] = tested on: Pseudomonas aeruginosa; assay: Antibacterial activity against Pseudomonas aeruginosa PA4 after 20 hrs under iron-rich medium by broth microdilution method; format: functional; settings: PA4, 20 h
[27] = tested on: Pseudomonas aeruginosa; assay: Antibacterial activity against Pseudomonas aeruginosa PA4 after 20 hrs under iron-deficient medium by broth microdilution method; format: functional; settings: PA4, 20 h
[28] = tested on: Staphylococcus aureus; assay: Antibacterial activity against methicillin-resistant Staphylococcus aureus; format: functional
[29] = tested on: Klebsiella pneumoniae; assay: Antibacterial activity against Klebsiella pneumoniae; format: functional
[30] = tested on: Pseudomonas aeruginosa; assay: Antibacterial activity against Pseudomonas aeruginosa; format: functional
[31] = tested on: Acinetobacter baumannii; assay: Antibacterial activity against Acinetobacter baumannii ATCC 19606 by broth microdilution method; format: functional; settings: ATCC 19606 = CIP 70.34 = JCM 6841
[32] = tested on: Staphylococcus aureus; assay: Antibacterial activity against Staphylococcus aureus BAA-977 expressing iermA by broth microdilution method; format: functional
[33] = tested on: Staphylococcus aureus; assay: Antibacterial activity against methicillin-resistant Staphylococcus aureus NRS384 expressing MsrA by broth microdilution method; format: functional
[34] = tested on: Enterococcus faecalis; assay: Antibacterial activity against Enterococcus faecalis ATCC 29212 by broth microdilution method; format: functional
[35] = tested on: Enterococcus faecalis; assay: Antibacterial activity against Enterococcus faecalis UNT-047 expressing ermB by broth microdilution method; format: functional
[36] = tested on: Streptococcus pneumoniae; assay: Antibacterial activity against Streptococcus pneumoniae ATCC 49619 by broth microdilution method; format: functional
[37] = tested on: Streptococcus pneumoniae; assay: Antibacterial activity against Streptococcus pneumoniae UNT-042 expressing ermB/mefA by broth microdilution method; format: functional
[38] = tested on: Pseudomonas aeruginosa; assay: Antibacterial activity against Pseudomonas aeruginosa ATCC 27853 by broth microdilution method; format: functional
[39] = tested on: Staphylococcus aureus; assay: Antibacterial activity against Staphylococcus aureus ATCC 25923 after 16 to 20 hrs by CLSI protocol based broth microdilution method; format: functional
[40] = tested on: Staphylococcus epidermidis; assay: Antibacterial activity against Staphylococcus epidermidis ATCC 12228 after 16 to 20 hrs by CLSI protocol based broth microdilution method; format: functional
[41] = tested on: Staphylococcus aureus; assay: Antibacterial activity against methicillin-resistant Staphylococcus aureus 757 after 20 hrs by CLSI-based microdilution method; format: functional; settings: Staphylococcus aureus, 757, 20 h
[42] = tested on: Staphylococcus aureus; assay: Antibacterial activity against methicillin-resistant Staphylococcus aureus 2011 after 20 hrs by CLSI-based microdilution method; format: functional; settings: Staphylococcus aureus, 2011, 20 h
[43] = tested on: Enterococcus faecium; assay: Antibacterial activity against […] Enterococcus faecium 1092 after 20 hrs by CLSI-based microdilution method; format: functional; settings: Enterococcus faecium, 1092, 20 h
[44] = tested on: Escherichia coli; assay: Antibacterial activity against Escherichia coli 2271 after 20 hrs by CLSI-based microdilution method; format: functional; settings: Escherichia coli, 2271, 20 h
[45] = tested on: Escherichia coli; assay: Antibacterial activity against Escherichia coli 121 after 20 hrs by CLSI-based microdilution method; format: functional; settings: O157:H7 str. 121, 20 h
[46] = tested on: Streptococcus pneumoniae; assay: Antibacterial activity against Streptococcus pneumoniae 911 after 20 hrs by CLSI-based microdilution method; format: functional; settings: Streptococcus pneumoniae, 911, 20 h
[47] = tested on: Haemophilus influenzae; assay: Antibacterial activity against Haemophilus influenzae 1244 after 20 hrs by CLSI-based microdilution method; format: functional; settings: Haemophilus influenzae, 1244, 20 h

## Cc1cc(=O)n(C)c2c3c4c(cc12)c(C)cc(=O)n4CCO3
[1]
  Drug uptake: 298 nmol
[2]
  MIC: 0.06 to 1 µg/mL (≈ 0.202 to 3.37 µM)
[3]
  MIC: 0.06 to 1 µg/mL (≈ 0.202 to 3.37 µM)
[4]
  MIC: > 32 µg/mL
[5]
  MIC: > 32 µg/mL
[6]
  MIC: > 32 µg/mL
[7]
  MIC: > 32 µg/mL
[8]
  MIC: > 32 µg/mL
[9]
  MIC: > 32 µg/mL
[10]
  MIC: > 32 µg/mL
[11]
  MIC: > 32 µg/mL
[12]
  MIC: > 32 µg/mL
[13]
  MIC: > 32 µg/mL
[14]
  MIC: > 32 µg/mL
[15]
  MIC: ≥ 32 µg/mL
[16]
  MIC: ≥ 32 µg/mL
[17]
  MIC: ≥ 32 µg/mL

## CCCCCC[C@H](CCCCC[C@@H](O)C(N)=O)OC(=O)[C@@H]1CCCCN1C(=O)c1ccccc1O
[18]
  IC50: > 250 µM

## CCCCCC[C@H](CCCCC[C@@H](O)C(N)=O)OC(=O)[C@@H]1CC(F)=CN1C(=O)c1ccccc1O
[18]
  IC50: 0.019 µM

## CCCCCC[C@H](CCCCC[C@@H](O)C(N)=O)NC(=O)[C@@H]1CC=CN1C(=O)c1ccccc1O
[18]
  IC50: > 250 µM

## C[C@@H]1C[C@H]2C(=O)OC[C@H](NC(=O)[C@H](Cc3cc(F)cc(F)c3)NC(=O)CCC3CCCCC3)C(=O)N3CCC[C@H]3C(=O)N3CCCC[C@H]3C(=O)N[C@@H](C)C(=O)N2C1
[19]
  IC50: 0.5 µM

## C/C=C/C=C/C=C/C(=O)N[C@@H](Cc1ccccc1)C(=O)N[C@H]1COC(=O)[C@@H]2C[C@@H](C)CN2C(=O)[C@H](C)NC(=O)[C@H](C)N(C)C(=O)[C@@H]2CCCN2C1=O ({Octatrienoyl(2E,4E,6E)}-FSP[NMeA]A[Pro(4R-Me)]; ester 2-C)
[19]
  IC50: 8.76 µM

## CC1(C)S[C@@H]2[C@H](NC(=O)[C@H](N)c3ccc(O)cc3)C(=O)N2[C@H]1C(=O)O [AMOXICILLIN]
[20]
  MIC: > 100 µM
[21]
  MIC: > 100 µM
[22]
  MIC: > 100 µM
[23]
  MIC: > 100 µM
[24]
  MIC: > 100 µM
[25]
  MIC: > 100 µM
[26]
  MIC: > 100 µM
[27]
  MIC: > 100 µM

## CN(C)[C@@H]1C(O)=C(C(N)=O)C(=O)[C@@]2(O)C(O)=C3C(=O)c4c(O)c(NC(=O)CN5CCCC5)cc(F)c4C[C@H]3C[C@@H]12 [ERAVACYCLINE]
[28]
  MIC: 0.015 to 4 µg/mL (≈ 0.0269 to 7.16 µM)
[29]
  MIC: 0.03 to 16 µg/mL (≈ 0.0537 to 28.6 µM)
[30]
  MIC: 0.06 to 64 µg/mL

## CC[C@H]1OC(=O)[C@H](C)[C@@H](O[C@H]2C[C@@](C)(OC)[C@@H](O)[C@H](C)O2)[C@H](C)[C@@H](O[C@@H]2O[C@H](C)C[C@H](N(C)C)[C@H]2O)[C@](C)(O)C[C@@H](C)C(=O)[C@H](C)[C@@H](O)[C@]1(C)O [ERYTHROMYCIN]
[2]
  MIC: 0.5 µg/mL (≈ 0.681 µM)
[31]
  MIC: 16 µg/mL (≈ 21.8 µM)
[32]
  MIC: > 256 µg/mL
[33]
  MIC: 64 µg/mL (≈ 87.2 µM)
[34]
  MIC: 1 µg/mL (≈ 1.36 µM)
[35]
  MIC: > 256 µg/mL
[36]
  MIC: 0.03 µg/mL (≈ 0.0409 µM)
[37]
  MIC: > 256 µg/mL
[38]
  MIC: 64 µg/mL (≈ 87.2 µM)

## c1ccc2nc3ccccc3nc2c1 [PHENAZINE]
[39]
  MIC: 6.25 µM (≈ 1.13 µg/mL)
[40]
  MIC: 6.25 µM (≈ 1.13 µg/mL)

## Cn1c2cccc(=O)c-2nc2ccccc21 [PYOCYANIN]
[39]
  MIC: 50 µM (≈ 10.5 µg/mL)
[40]
  MIC: 50 µM (≈ 10.5 µg/mL)

## CN(C)[C@@H]1C(O)=C(C(N)=O)C(=O)[C@@]2(O)C(O)=C3C(=O)c4c(O)cccc4[C@@](C)(O)[C@H]3C[C@@H]12 [TETRACYCLINE]
[41]
  MIC: 64 µg/mL (≈ 144 µM)
[42]
  MIC: 32 µg/mL (≈ 72 µM)
[43]
  MIC: > 64 µg/mL
[44]
  MIC: 64 µg/mL (≈ 144 µM)
[45]
  MIC: 64 µg/mL (≈ 144 µM)
[46]
  MIC: 64 µg/mL (≈ 144 µM)
[47]
  MIC: 16 µg/mL (≈ 36 µM)
